Test results reported in patent US20220370604A1, “PEPTIDE VACCINE FOR VIRUS INFECTION” (Vacino Biotech Co., Ltd., priority 2021, published 2022).
Ends that are not written are not given here.

Key:
[1] = tested on: CD8^+ T cells in human PBMCs (HLA-A201^+); assay: MHC class I tetramer assay; format: cell-based; conditions: human PBMC (HLA-A201^+), 30 nM tetramer, 20 minutes; FIG. 3
Experimental: Human PBMCs were treated with MHC class I tetramers binding with Peptide 1 (SEQ ID NO: 1) or Peptide 12 (SEQ ID NO: 12) for 20 minutes, co-stained with anti-CD8 antibodies, and then analyzed with a flow cytometer. Results are presented as mean with error bars representing standard error (n=3). *p<0.05.
MHC class I tetramer assay. […] Then, 50 µL of the obtained folded monomer were mixed with the equivalent of 2.1 μL of a 0.2 mg/mL streptavidin-fluorophore and incubated in the dark at 4° C. for at least 1 hour to tetramerized the monomer. The tetramer was diluted to 30 nM in FACS buffer (PBS with 1% v/v BSA and 0.1% v/v NaN3) for staining of human T cells.
Next, around 1-2×10^5 human peripheral blood mononuclear cells (PBMCs, HLA-A201^+) ([…] Technologies Inc, Vancouver, British Columbia, Canada) in FACS buffer were seeded onto a 96-well microplate. The cells were centrifuged at 700×g for 3 minutes, and the supernatant was removed. The cells were resuspended with 40 μL of the diluted tetramer and incubated in the dark at room temperature (RT) for 20 minutes. The cells were washed once in cold FACS buffer and centrifuged at 700×g for 3 minutes. […] The cells were washed twice in cold FACS buffer, resuspended in FACS buffer, and analyzed in a flow cytometer (BD LSRFortessa™X20, Franklin Lakes, N.J., U.S.).

[2] = Immunization of mice, total IgG ELISA; format: in vivo, BALB/c mice; conditions: for total IgG antibodies: BALB/c mice, ***p<0.001
Experimental: Immunization of mice. To determine the immunogenicity of the antigen peptides of the present invention, Peptide 1 (SEQ ID NO: 1) of the present invention were used as an example for mice model. Ten (10) female BALB/c mice (7-9 weeks old) supplied by Envigo (Indianapolis, Ind., USA) were intramuscularly injected with 3 shots of 45 μg Peptide 1 (SEQ ID NO: 1) at 2 weeks apart (on Days 0, 14, and 28). Serum was collected before the day of each immunization (on Days−1, 13, and 27). Terminal blood collection was performed on Day 41. Isolated serum was stored at −80° C. until serological analysis. Serum samples collected one day prior to the first injection (on Day−1, pre-dose group) and serum samples collected 2 weeks after the third injection (on Day 41, post-dose group) were used for anti-spike IgG ELISA assay.
Total IgG ELISA. IgG (Total) Mouse Uncoated ELISA kit (Cat. No. 88-50400, Thermo Fisher Scientific, MA, USA) was used for total IgG ELISA according to manufacturer's instruction. Briefly, Nunc™ MaxiSorp™ 9018 ELISA plate was coated with 100 μL/well of capture antibody in Coating Buffer and incubated overnight at 4° C. The plate was washed twice with 400 μL/well Wash Buffer. After the wells were blocked with 250 μL of Blocking Buffer and incubated at room temperature for 2 hours, the plate was washed twice. The standards were serially diluted with Assay Buffer A at 2-fold to make the standard curve. Then, 100 μL/well of Assay Buffer A were added to the blank wells, and 90 μL/well of Assay Buffer A were added to the sample wells. Serum samples were diluted at least 10,000-fold in Assay Buffer A, and then 10 μL/well of the prediluted serum samples were added to the appropriate wells. Fifty (50) μL/well of diluted Detection Antibody were added to all wells. Then, the plate was covered and incubated at room temperature for 2 hours, and washed four times after the incubation. […] After that, 100 μL of Stop Solution were added to each well, and the plate was read at OD 450 nm with a microplate reader. […]

[3] = tested on: CD4^+ T cells in human PBMCs (HLA-A201^+); assay: Intracellular cytokine staining and multiparameter flow cytometry; format: cell-based; conditions: Day 12
Experimental: Human PBMCs were treated with Peptide 1 (SEQ ID NO: 1) at the concentrations of 0.4, 2, 10, 50, 250 nM for 12 days and then subject to intracellular cytokine staining and multiparameter flow cytometry.
Human PBMCs were treated with Peptide 12 (SEQ ID NO: 12) at the concentrations of 0.4, 2, 10, 50, 250 nM for 12 days and then subject to intracellular cytokine staining and multiparameter flow cytometry.
Intracellular cytokine staining and multiparameter flow cytometry. Around 1-2×10^5 human PBMCs (HLA-A201^+) ([…] Technologies Inc, Vancouver, British Columbia, Canada) were seeded onto 96-well microplate in X-VIVO 15 medium. […] The culture medium was refreshed every 5 days, and on the 12th day after treatment with the peptides, the cells were collected and stained with anti-CD4-PerCP-Cy5.5 conjugated, IFN-γ-FITC chrome conjugated, and IL4-PE chrome conjugated antibodies according to the manufacturer's instruction. After that, the cells were washed twice in cold FACS buffer, resuspended in FACS buffer, and analyzed in a flow cytometer ((BD LSRFortessa™X20, Franklin Lakes, N.J., U.S.).

HLA-A201 = HLA-A201 (Homo sapiens, UniProt P04439, D140Y/D185E/D98H/E176V/E277Q/G131W/G231S/I119V/I121R/I166T/I218V/N151K/N90K/P208A/P217A/Q86G/Q94H/R138H/R169H); assay: MHC-peptide binding assay (MHC class I refolding assay, easYmer)
Experimental: Different concentrations of peptides were incubated with β2-microglobulin light chain subunit and biotin-labeled recombinant HLA-A201 to form peptide-HLA complexes. The peptide-HLA complexes were then captured by streptavidin-coated beads and detected by anti-human β2-microglobulin antibody on flow cytometry. Each data point represents the mean fluorescence intensity corresponding to the number of the formed peptide-HLA complex, and the error bars represent standard deviation (n=2).
Each bar represents the mean fluorescence intensity corresponding to the number of the formed peptide-HLA complex, and the error bars represent standard deviation (n=2).
MHC-peptide binding assay. […] MHC class I refolding assay (easYmer, immunAware Aps, Copenhagen, Denmark) was preformed according to manufacturer's instruction. […] The biotin-labeled peptide-HLA complex was then captured by streptavidin-coated beads and detected by PE-conjugated anti-human β2-microglobulin on flow cytometry. […] No peptide was used in the negative control.

[4] = tested on: Human SARS-CoV-2 Spike (trimer); assay: Immunization of mice, anti-spike IgG ELISA; format: in vivo; conditions: Day 41 vs Day -1, BALB/c mice

| Sequence | antigen specific cytotoxic T cells (CTLs) detected by MHC class I tetramer staining [1] | total IgG antibodies ([2]; intramuscular, 45 μg, Days 0, 14, 28, FIG. 5A) | total IgG, course over administrations ([2]; intramuscular, 45 μg, sera on Days -1, 13, 27, 41, FIG. 5A) | total IgG antibodies ([2]; oral, 200 μg formulated with 1% (v/v) PLCL-PEG-PLCL, Day 41 vs Day -1, FIG. 7A) | IL-4 secretion by T helper cells (CD4^+ cells) ([3]; 50 nM peptide) | IFN-γ secretion by T helper cells (CD4^+ cells) ([3]; 250 nM peptide) | binding affinity for HLA-A201, times as high as that of CMVpp65495-503 (positive control) (HLA-A201; 8.9 nM peptide, FIG. 1, mean fluorescence intensity of peptide-HLA complex) [times] | binding affinity for HLA-A201 compared with CMVpp65495-503 (positive control) (HLA-A201; concentration of 3 nM and 8.9 nM, FIG. 1) | anti-spike IgG antibodies ([4]; intramuscular, 45 μg, FIG. 5B, ***p<0.001) | anti-spike IgG antibodies ([4]; oral, 200 μg formulated with 1% (v/v) PLCL-PEG-PLCL, FIG. 7B, **p<0.01) |
| --- | --- | --- | --- | --- | --- | --- | --- | --- | --- | --- |
| KLNSGLSKV [Peptide 12] | can be detected |  |  |  |  |  |  |  |  |  |
| KLNSGDSKV [Peptide 1] | can be detected | induced total IgG antibodies | reaches to the plateau after second administration | induced total IgG antibodies | higher level | higher level | 1.8 | higher binding affinity for HLA-A201 than CMVpp65495-503 | induced anti-spike IgG antibodies | induced anti-spike IgG antibodies |
